Where two headings read alike, the source gives them in different places.
Tests used:
[1] = tested on: ICAM-1 expression in HT-29 cells; experiment: Measurement of ICAM-1 expressing activity (TNFα-induced ICAM-1 expression, cell ELISA); type: cell-based; settings: Homo sapiens, Table 6, cell activity inhibition test by method (3), read-out: EVALUATION (IC50 class, inhibition of cell activity)
Protocol: Method 2: Measurement of ICAM-1 expressing activity
2.0 x 10^4 HT-29 cells (ATCC) were plated onto a 96-well plate, and the cells were cultured for 48 hours using a McCoy' 5A medium (GIBCO) containing 10% inactivated fetal calf serum. The culture medium was removed, a culture medium containing a compound to be evaluated (final DMSO concentration of 0.5%) was added, and this was incubated at 37°C for 30 minutes. Thirty ng/mL of human TNFα (GIBCO) was added, and this was incubated at 37°C for 4 hours. After washing once with a washing solution (PBS containing 0.05% Tween 20), ice-cooled methanol was added, and this was left on ice for 10 minutes and then fixed. After removing methanol, PBS containing 1% BSA was added, and blocking was performed by letting this stand at room temperature for 30 minutes. Anti-ICAM-1 antibody (Santa Cruz Biotechnology) was added, and this was left to stand at room temperature for 1 hour. After washing with the washing solution, POD-labeled secondary antibody was added, and this was left to stand at room temperature for 30 minutes. This was washed, 100 µL of 100 mM citric acid buffer (pH4.2) containing 1 mM TMBZ and 0.03% H2O2 was added, and this was reacted at room temperature for 15 minutes. The reaction was terminated with 100 µL of 2 N H2SO4, and the absorbance at 450 nm was measured using ARVO-HTS (Perkin Elmer).
When cells are stimulated with TNFα, IκBα is degraded after ubiquitination resulting in the activation of NFκB and the promotion of the expression of adhesion factor ICAM-1. Therefore, the suppression of ICAM-1 expression described above serves as an indicator to determine the effectiveness of the compound in the cells.

[2] = biological target: T1, IκBα ubiquitinating enzyme (SCF complex: ROC1, Cullin1, Skp1, His-TrCP1; with E1, UbcH5b) (Homo sapiens, UniProt P62877+P63208+Q13616+Q9Y297); experiment: Measurement of ubiquitinating enzyme activity (IκBα ubiquitination, time-resolved fluorescence with Eu(K)-labeled ubiquitin and XL665-labeled anti-GST antibody); type: biochemical
T1 construct: His (polyhistidine); made in house; host or cells: insect cells (baculovirus) for the SCF complex and His-E1; E. coli for His-UBCH5b
T1 sequence (Q9Y297 whole entry): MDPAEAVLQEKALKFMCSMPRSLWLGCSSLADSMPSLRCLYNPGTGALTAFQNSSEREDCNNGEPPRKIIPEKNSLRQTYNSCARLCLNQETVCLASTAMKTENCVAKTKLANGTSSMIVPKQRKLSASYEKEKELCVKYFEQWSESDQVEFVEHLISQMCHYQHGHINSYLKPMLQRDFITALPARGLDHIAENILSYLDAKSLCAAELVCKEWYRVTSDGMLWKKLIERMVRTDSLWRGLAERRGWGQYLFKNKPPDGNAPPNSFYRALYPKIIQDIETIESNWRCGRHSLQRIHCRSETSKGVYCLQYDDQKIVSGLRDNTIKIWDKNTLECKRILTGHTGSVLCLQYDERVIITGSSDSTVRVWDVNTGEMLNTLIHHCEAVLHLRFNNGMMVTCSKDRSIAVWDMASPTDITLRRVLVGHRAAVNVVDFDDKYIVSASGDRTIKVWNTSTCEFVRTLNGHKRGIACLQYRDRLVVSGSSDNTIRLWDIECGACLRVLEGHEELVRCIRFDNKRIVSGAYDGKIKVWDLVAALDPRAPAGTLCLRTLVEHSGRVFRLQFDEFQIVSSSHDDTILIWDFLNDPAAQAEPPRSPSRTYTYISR
T1 sequence (Q13616 whole entry): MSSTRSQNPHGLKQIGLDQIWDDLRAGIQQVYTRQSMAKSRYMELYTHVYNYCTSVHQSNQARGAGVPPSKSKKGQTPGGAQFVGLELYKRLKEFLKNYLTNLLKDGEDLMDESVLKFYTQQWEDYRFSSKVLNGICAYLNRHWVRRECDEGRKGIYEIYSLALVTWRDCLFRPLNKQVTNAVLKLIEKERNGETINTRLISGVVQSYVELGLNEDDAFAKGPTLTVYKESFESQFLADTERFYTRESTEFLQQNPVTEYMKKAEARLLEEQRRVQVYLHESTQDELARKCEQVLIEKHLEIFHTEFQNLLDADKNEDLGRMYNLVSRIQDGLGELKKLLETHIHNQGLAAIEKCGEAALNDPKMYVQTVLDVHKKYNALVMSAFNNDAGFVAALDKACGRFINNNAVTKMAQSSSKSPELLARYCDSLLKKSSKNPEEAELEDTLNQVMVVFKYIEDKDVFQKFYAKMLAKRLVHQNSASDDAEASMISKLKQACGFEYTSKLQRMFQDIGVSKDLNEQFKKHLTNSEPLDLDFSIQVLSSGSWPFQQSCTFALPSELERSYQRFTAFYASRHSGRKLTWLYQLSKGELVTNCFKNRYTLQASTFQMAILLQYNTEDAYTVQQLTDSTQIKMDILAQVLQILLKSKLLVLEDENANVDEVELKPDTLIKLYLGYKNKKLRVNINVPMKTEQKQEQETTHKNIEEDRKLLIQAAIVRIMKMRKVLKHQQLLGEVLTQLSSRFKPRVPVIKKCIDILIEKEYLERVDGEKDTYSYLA
T1 sequence (P63208 whole entry): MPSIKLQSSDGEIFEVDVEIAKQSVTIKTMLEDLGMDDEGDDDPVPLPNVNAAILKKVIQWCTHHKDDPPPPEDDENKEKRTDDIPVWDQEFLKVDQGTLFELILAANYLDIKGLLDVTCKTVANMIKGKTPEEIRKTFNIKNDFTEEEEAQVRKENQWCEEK
T1 sequence (P62877 whole entry): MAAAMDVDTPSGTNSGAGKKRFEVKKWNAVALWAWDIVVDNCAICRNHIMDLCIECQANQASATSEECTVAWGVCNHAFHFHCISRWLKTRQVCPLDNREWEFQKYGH
Procedure, shortened: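 Human SCF complex with E1 and UbcH5b ubiquitinated GST-IκBα pre-phosphorylated by IKKβ (2 mM ATP, pH 7.4, 1 h, RT), with Eu(K)-ubiquitin, 30 min RT. Stopped with EDTA, XL665 anti-GST added for 2 h; 665/620 nm TR-FRET ratio. % inhibition versus no-compound control and no-SCF blank gave IC50.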

[3] = enzyme activity inhibition test, method (1), Table 5, read-out: EVALUATION

IC50 [1] | IC50 [2, 3] | SMILES | IC50 [2]
< 40 µM | 10 to 20 µM | CC1=NN(c2ccc(C(=O)N3CCC(CO)CC3)cc2)C(=O)/C1=C\c1ccc2c(c1)OCCO2 [Compound 387] | 
< 40 µM | 10 to 20 µM | O=C(O)c1ccc(N2N=C(Cc3ccccc3)/C(=C/c3ccc(-n4ccnc4)cc3)C2=O)cc1 [Compound 271] | 
< 10 µM | < 10 µM | CCCCC1=NN(c2ccc(C(=O)O)cc2)C(=O)/C1=C\c1ccc2c(c1)OCCO2 [Compound 303] | 
10 to 20 µM | < 10 µM | COC(=O)N1CCN(c2ccc(/C=C3\C(=O)N(c4ccc(C(=O)O)cc4)N=C3Cc3ccccc3)cc2)CC1 [Compound 266] | 
10 to 20 µM | < 10 µM | O=C(O)c1ccc(N2N=C(C3CC3)/C(=C/c3ccc4ccccc4c3)C2=O)cc1 [Compound 313] | 
10 to 20 µM | < 10 µM | CC1=NN(c2ccc(C(=O)O)cc2)C(=O)/C1=C\c1ccc(N2CCN(c3ccc(F)cc3)CC2)cc1 [Compound 448] | 
< 40 µM | < 10 µM | CC1=NN(c2cccc(S(N)(=O)=O)c2)C(=O)/C1=C\c1ccc2[nH]ccc2c1 [Compound 134] | 
< 40 µM | < 10 µM | CC1=NN(c2cccc(C(=O)O)c2)C(=O)C1=Cc1ccc(N2CCN(c3ccccc3)CC2)cc1 [Compound 423] | 
< 40 µM | 10 to 20 µM | CC1=NN(c2ccc(S(N)(=O)=O)cc2)C(=O)C1=Cc1ccc(O)cc1 [Compound 218] | 
< 10 µM | < 10 µM | COCC1=NN(c2ccc(C(=O)O)cc2)C(=O)/C1=C\c1ccc2ccccc2c1 [Compound 233] | 
< 40 µM | 10 to 20 µM | Cn1cc(-c2ccc(/C=C3\C(=O)N(Cc4cccc(O)c4)N=C3c3ccoc3)o2)cn1 [Compound 188] | 
10 to 20 µM | < 10 µM | CC1=NN(c2cccc(C(=O)O)c2)C(=O)/C1=C\c1ccc([N+](=O)[O-])o1 [Compound 425] | 
< 40 µM | < 10 µM | CC1=NN(c2cccc(C(=O)O)c2)C(=O)/C1=C\c1ccc2c(ccn2Cc2ccccc2)c1 [Compound 494] | 
10 to 20 µM | 10 to 20 µM | COCC1=NN(Cc2cccc(O)c2)C(=O)/C1=C\c1ccc(-c2ccccc2F)o1 [Compound 190] | 
10 to 20 µM | < 10 µM | CC1=NN(c2cccc(C(=O)O)c2)C(=O)/C1=C\c1ccc(N2CCN(C(=O)c3ccccc3)CC2)cc1 [Compound 440] | 
10 to 20 µM | 10 to 20 µM | CC1=NN(c2ccc(C(=O)N(C)CCO)cc2)C(=O)/C1=C\c1ccc2c(c1)OCCO2 [Compound 412] | 
< 40 µM | < 10 µM | O=C1/C(=C\c2ccc3c(c2)OCCO3)C(C2CC2)=NN1c1ccccc1 [Compound 77] | 
< 40 µM | 10 to 20 µM | CC1=NN(c2ccc(C(=O)O)cc2)C(=O)/C1=C\c1ccc(N2CCN(C(=O)OC(C)(C)C)CC2)cc1 [Compound 436] | 
10 to 20 µM | < 10 µM | CCCCC1=NN(c2ccc(C(=O)O)cc2)C(=O)/C1=C\c1ccc(CO)o1 [Compound 300] | 
< 40 µM | 10 to 20 µM | COCCC1=NN(c2cccc(C(=O)O)c2)C(=O)/C1=C\c1ccc(-c2cnn(C)c2)o1 [Compound 505] | 
10 to 20 µM | < 10 µM | CCOC(=O)c1ccc(COc2ccc(/C=C3\C(=O)N(c4ccc(C(=O)O)cc4)N=C3C)cc2OC)o1 [Compound 392] | 
< 40 µM | 10 to 20 µM | CCCCC1=NN(c2cccc(C(=O)O)c2)C(=O)/C1=C\c1ccc2c(c1)OCO2 [Compound 473] | 
< 40 µM | 10 to 20 µM | CC1=NN(c2cccc(C(=O)O)c2)C(=O)/C1=C\c1ccc(-c2ccccc2F)o1 [Compound 486] | 
10 to 20 µM | 10 to 20 µM | CC1=NN(c2ccc(S(N)(=O)=O)cc2)C(=O)/C1=C\c1ccc2ccccc2c1 [Compound 116] | 
10 to 20 µM | < 10 µM | COc1ccccc1-c1ccc(/C=C2\C(=O)N(c3ccc(C(=O)O)cc3)N=C2c2ccoc2)o1 [Compound 483] | 
< 10 µM | 10 to 20 µM | O=C(O)c1ccc(N2N=C(Cc3ccccc3)/C(=C/c3ccc4c(c3)OCCO4)C2=O)cc1 [Compound 272] | 

IC50 [1] | IC50 [2, 3] | SMILES | IC50 [2]
< 40 µM | < 10 µM | CCCCC1=NN(c2cccc(C(=O)O)c2)C(=O)/C1=C\c1ccc2[nH]ccc2c1 [Compound 481] | 
10 to 20 µM | 10 to 20 µM | CCCCC1=NN(c2ccccc2)C(=O)/C1=C\c1ccc(CO)o1 [Compound 56] | 
< 40 µM | < 10 µM | CC1=NN(c2ccc(C(=O)O)cc2)C(=O)/C1=C\c1ccc2c(ccn2C(=O)c2ccccc2)c1 [Compound 528] | 
< 10 µM | 10 to 20 µM | COc1cc(/C=C2/C(=O)N(C3CCCCC3)N=C2C)ccc1O [Compound 199] | 
< 10 µM | < 10 µM | COCCC1=NN(c2ccc(C(=O)O)cc2)C(=O)/C1=C\c1ccc(-c2ccccc2F)o1 [Compound 522] | 
10 to 20 µM | 10 to 20 µM | COCC1=NN(c2ccccc2)C(=O)/C1=C\c1ccc2ccccc2c1 [Compound 2] | 
< 40 µM | < 10 µM | CC1=NN(c2cccc(C(=O)O)c2)C(=O)/C1=C\c1ccc(N2CCOCC2)cc1 [Compound 441] | 
< 40 µM | < 10 µM | CCCCC1=NN(c2ccc(C(=O)O)cc2)C(=O)/C1=C\c1ccc2[nH]ccc2c1 [Compound 474] | 
< 40 µM | 10 to 20 µM | O=C1/C(=C\c2ccc3ccccc3c2)C(C2CC2)=NN1c1ccccc1 [Compound 70] | 
< 40 µM | < 10 µM | CC1=NN(c2cccc(C(=O)O)c2)C(=O)/C1=C\c1ccc2c(ccn2CC2CC2)c1 [Compound 499] | 
10 to 20 µM | 10 to 20 µM | COc1cc(/C=C2\C(=O)N(c3ccc(C(=O)O)cc3)N=C2Cc2ccccc2)ccc1O [Compound 263] | 
10 to 20 µM | < 10 µM | COc1ccc(C2=NN(c3ccc(C(=O)O)cc3)C(=O)/C2=C\c2ccc(OCc3ccccc3)c(OC)c2)cc1OC [Compound 277] | 
10 to 20 µM | 10 to 20 µM | CCCCC1=NN(c2cccc(C(=O)O)c2)C(=O)/C1=C\c1ccc(N2CCCC2)cc1 [Compound 479] | 
< 40 µM | < 10 µM | CC1=NN(c2cccc(C(=O)N3CCC(O)CC3)c2)C(=O)/C1=C\c1ccc2[nH]ccc2c1 [Compound 373] | 
< 40 µM | < 10 µM | O=C(O)c1ccc(N2N=C(C3CC3)/C(=C/c3ccc4[nH]ccc4c3)C2=O)cc1 [Compound 482] | 
< 40 µM | < 10 µM | CC(=O)N1CCN(c2ccc(/C=C3\C(=O)N(c4cccc(C(=O)O)c4)N=C3C)cc2)CC1 [Compound 442] | 
< 40 µM | 10 to 20 µM | O=C(O)c1ccc(N2N=C(Cc3ccccc3)/C(=C/c3ccc(CO)o3)C2=O)cc1 [Compound 268] | 
 | < 10 µM | CC1=NN(c2cccc(C(=O)N3CCC(CO)CC3)c2)C(=O)/C1=C\c1ccc2[nH]ccc2c1 [Compound 371] | 
 | < 40 µM | COc1cc(/C=C2/C(=O)N(c3ccccc3F)N=C2C)ccc1O [Compound 197] | 
 | < 40 µM | COCC1=NN(c2ccc(C(=O)O)cc2)C(=O)C1=Cc1ccc(N2CCC(O)CC2)s1 [Compound 240] | 
 | < 40 µM | O=C1/C(=C\c2ccc3c(c2)OCCO3)C(c2ccncc2)=NN1c1ccccc1 [Compound 46] | 
 | 10 to 20 µM | COc1cc(/C=C2\C(=O)N(c3ccc(C(=O)O)cc3)N=C2C)ccc1OCC1CCCCC1 [Compound 406] | 
 | < 10 µM | CC1=NN(c2cccc(S(N)(=O)=O)c2)C(=O)/C1=C\c1ccc2cc[nH]c2c1 [Compound 149] | 
 | < 10 µM | CC1=NN(c2cccc(C(=O)O)c2)C(=O)/C1=C\c1cccc2cc[nH]c12 [Compound 356] | 
 | 10 to 20 µM | CC1=NN(c2ccc(S(N)(=O)=O)cc2)C(=O)C1=Cc1ccc(N2CCNCC2)cc1 [Compound 183] | 
 | < 10 µM | CC1=NN(c2ccc(S(N)(=O)=O)cc2)C(=O)C1=Cc1cccc2cc[nH]c12 [Compound 151] | 

SMILES | IC50 [1] | IC50 [2, 3] | IC50 [2]
COC(=O)N1CCN(c2ccc(C=C3C(=O)N(c4ccccc4)N=C3C3CC3)cc2)CC1 [Compound 73] | < 40 µM |  | 10 to 20 µM
CC1=NN(c2ccc(S(N)(=O)=O)cc2)C(=O)C1=Cc1ccc(NC(=O)c2ccc(F)cc2)cc1 [Compound 226] | 10 to 20 µM |  | < 10 µM
CC(C)=CC(=O)Nc1ccc(C=C2C(=O)N(c3ccc(S(N)(=O)=O)cc3)N=C2C)cc1 [Compound 232] | < 40 µM |  | 10 to 20 µM
CCCCC1=NN(c2ccc(C(=O)O)cc2)C(=O)C1=Cc1ccc(O)c(OC)c1 [Compound 295] | 10 to 20 µM |  | 10 to 20 µM
